Drawing on patent US10065950B2, “Substituted thiazoles as HIV integrase inhibitors” (Japan Tobacco Inc., priority 2010, dated 2018), this text covers IC50 for 62 compounds.

This experiment deals with HIV-1 pNL4-3 integrase (Human immunodeficiency virus type 1 group M subtype B (isolate NY5) (HIV-1), UniProt P12497). The experiment in a line: Determination of enzyme (HIV integrase) inhibitory activity. The note with it: calculated from inhibition rate (fluorescence). It counts as biochemical. An outline of the steps: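 Full-length pNL4-3 integrase from E. coli (0.75 μM stock) reacted 60 min at 37° C with compound and biotinylated donor DNA bound to streptavidin plates, in MOPS buffer with 5 mM MgCl2 and 10% DMSO. Digoxigenin-labelled target DNA (25 nM stock) then added for 20 min; strand transfer read by peroxidase anti-digoxigenin fluorescence (Ex 325/Em 420 nm).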
In the case of `COC1CN(C(=O)[C@@]2(C)CN([C@H](C)C3CC3)C(=O)c3c(O)c(=O)c(-c4ncc(Cc5ccc(F)cc5)s4)cn32)C1` [Example 281], the concentration for half-maximal inhibition (IC50) was 16 nM.

Turning to `CCN1C[C@](C)(C(=O)N2CCCC2)n2cc(-c3nnc(Cc4ccc(F)cc4)s3)c(=O)c(O)c2C1=O` [Example 200], the 50% inhibitory concentration (IC50) is 9.6 nM. For `CCOC[C@@H]1Cn2cc(-c3ncc(Cc4ccc(F)cc4)s3)c(=O)c(O)c2C(=O)N1CC` [Example 222], the 50% inhibitory concentration (IC50) was 6.5 nM. For `COC[C@@H]1Cn2cc(-c3nnc(Cc4ccc(F)cc4)s3)c(=O)c(O)c2C(=O)N1C1CCCC1` [Example 196], the concentration for half-maximal inhibition (IC50) is 6.7 nM. `CC(C)N1CC(C)(C(=O)O)n2cc(-c3ncc(Cc4ccc(F)cc4F)s3)c(=O)c(O)c2C1=O` (centres unmarked) [Example 24]: the half-maximal inhibitory concentration (IC50) is 23 nM. With `CCN1C(=O)c2c(O)c(=O)c(-c3ncc(Cc4ccc(F)cc4)s3)cn2C[C@]1(C)C(=O)N1CCCC1` [Example 294], the concentration for half-maximal inhibition (IC50) was 11 nM.

With `COC[C@H]1CN(CC2CC2)C(=O)c2c(O)c(=O)c(-c3nnc(Cc4ccc(F)cc4)s3)cn21` [Example 116], the IC50 was 9.6 nM. With `CC(C)N1C[C@@](C)(C(=O)N2CCCC2)n2cc(-c3nnc(Cc4ccc(F)cc4F)s3)c(=O)c(O)c2C1=O` [Example 172] the figure was 14 nM; with `CC(C)NC(=O)C1CN(C(C)C)C(=O)c2c(O)c(=O)c(-c3ncc(Cc4ccc(F)cc4F)s3)cn21` (centres unmarked) [Example 31], 8.3 nM; with `CC(C)N1C(=O)c2c(O)c(=O)c(-c3nnc(Cc4ccc(F)cc4F)s3)cn2C[C@H]1CO` [Example 133], 7.4 nM. With `CC(=O)N(C)CC1CN(C(C)C)C(=O)c2c(O)c(=O)c(-c3ncc(Cc4ccc(F)cc4F)s3)cn21` (centres unmarked) [Example 80] the figure was 9.8 nM; with `COC[C@@H]1CN(C(C)C)C(=O)c2c(O)c(=O)c(-c3nnc(Cc4ccc(F)cc4)s3)cn21` [Example 88], 8.7 nM; with `CC(C)N1CC(CC(=O)NC2CC2)n2cc(-c3ncc(Cc4ccc(F)cc4F)s3)c(=O)c(O)c2C1=O` (centres unmarked) [Example 71], 11 nM. With `CC(C)OC[C@H]1CN(C(C)C)C(=O)c2c(O)c(=O)c(-c3nnc(Cc4ccc(F)cc4)s3)cn21` [Example 365] the figure was 12 nM; with `COCCN(C)C(=O)CC1CN(C(C)C)C(=O)c2c(O)c(=O)c(-c3ncc(Cc4ccc(F)cc4F)s3)cn21` (centres unmarked) [Example 73], 7.7 nM. Turning to `COC[C@@H]1Cn2cc(-c3ncc(Cc4ccc(F)cc4F)s3)c(=O)c(O)c2C(=O)N1C(C)C` [Example 168], the concentration for half-maximal inhibition (IC50) is 5.8 nM. With `CC(C)C(=O)NCC1CN(C(C)C)C(=O)c2c(O)c(=O)c(-c3ncc(Cc4ccc(F)cc4F)s3)cn21` (centres unmarked) [Example 69] the figure was 13 nM; with `CC(C)N1C[C@](C)(C(=O)N2CCC(=O)C2)n2cc(-c3ncc(Cc4ccc(F)cc4)s3)c(=O)c(O)c2C1=O` [Example 290], 14 nM; with `CC(=O)N(C)CC1(C)CN(C(C)C)C(=O)c2c(O)c(=O)c(-c3ncc(Cc4ccc(F)cc4F)s3)cn21` (centres unmarked) [Example 139], 12 nM. As to `COC[C@H]1CN(C(C)C)C(=O)c2c(O)c(=O)c(-c3nnc(CCCc4ccc(F)cc4)s3)cn21` [Example 242], the IC50 was 13 nM. With `COC[C@H]1CN([C@H](C)C(C)C)C(=O)c2c(O)c(=O)c(-c3nnc(Cc4ccc(F)cc4F)s3)cn21` [Example 148] the figure was 9.8 nM; with `COC[C@@H]1[C@H](C)n2cc(-c3nnc(Cc4ccc(F)cc4)s3)c(=O)c(O)c2C(=O)N1CC1CC1` [Example 257], 9.1 nM; with `CC[C@@H]1Cn2cc(-c3nnc(Cc4ccc(F)cc4)s3)c(=O)c(O)c2C(=O)N1CC` [Example 291], 8.7 nM. With `CCN1C(=O)c2c(O)c(=O)c(-c3ncc(Cc4ccc(F)cc4)s3)cn2C[C@]1(C)C(=O)N(C)C` [Example 293] the figure was 9.6 nM. Regarding `COC[C@@H]1[C@H](C)n2cc(-c3ncc(Cc4ccc(F)cc4)s3)c(=O)c(O)c2C(=O)N1C(C)C` [Example 247], the half-maximal inhibitory concentration (IC50) was 10 nM. Take `COCCOC[C@H]1CN(CC(C)(C)C)C(=O)c2c(O)c(=O)c(-c3nnc(Cc4ccc(F)cc4F)s3)cn21` [Example 124]: the IC50 is 15 nM. In the case of `CCN1C(=O)c2c(O)c(=O)c(-c3nnc(Cc4ccc(F)cc4)s3)cn2CC1(C)C` [Example 355] it was 6.6 nM; in that of `CC(C)N1C(=O)c2c(O)c(=O)c(-c3nnc(Cc4ccc(F)cc4F)s3)cn2C[C@@]1(C)C(=O)N(C)C` [Example 321], 7 nM. In the case of `CC(C)NC(=O)C1(C)CN(C(C)C)C(=O)c2c(O)c(=O)c(-c3ncc(Cc4ccc(F)cc4)s3)cn21` (centres unmarked) [Example 106] it was 20 nM; in that of `CC(C)N1CC(C)(C(=O)N(C)C)n2cc(-c3ncc(Cc4ccc(F)cc4F)s3)c(=O)c(O)c2C1=O` (centres unmarked) [Example 28], 15 nM; in that of `CN(C)C(=O)[C@@]1(C)CN(C)C(=O)c2c(O)c(=O)c(-c3nnc(Cc4ccc(F)cc4)s3)cn21` [Example 313], 9.7 nM. In the case of `COCC1CN(C(C)C)C(=O)c2c(O)c(=O)c(-c3nnc(Cc4ccc(F)cc4F)s3)cn21` (centres unmarked) [Example 18], the 50% inhibitory concentration (IC50) was 8.2 nM. In the case of `CC(=O)NC[C@H]1Cn2cc(-c3nnc(Cc4ccc(F)cc4F)s3)c(=O)c(O)c2C(=O)N1C(C)C` [Example 140] it was 5.8 nM. As to `CC(C)N1C(=O)c2c(O)c(=O)c(-c3nnc(Cc4ccc(F)cc4F)s3)cn2CC1CC(=O)O` (centres unmarked) [Example 74], the half-inhibitory concentration (IC50) was 5.7 nM.

Take `CCN1C[C@](C)(COCCOC)n2cc(-c3nnc(Cc4ccc(F)cc4)s3)c(=O)c(O)c2C1=O` [Example 296]: the IC50 is 19 nM. In the case of `COC1CN(C(=O)[C@@]2(C)CN(C(C)C)C(=O)c3c(O)c(=O)c(-c4ncc(Cc5ccc(F)cc5)s4)cn32)C1` [Example 237] it was 13 nM. With `CCNC(=O)C1(C)CN(C(C)C)C(=O)c2c(O)c(=O)c(-c3ncc(Cc4ccc(F)cc4F)s3)cn21` (centres unmarked) [Example 27] the figure was 10 nM; with `COC[C@H]1CN(C(C)C)C(=O)c2c(O)c(=O)c(-c3nnc(Cc4cc(OC)c(F)cc4F)s3)cn21` [Example 277], 12 nM; with `CCN(C)C(=O)[C@]1(COCCOC)CN(C(C)C)C(=O)c2c(O)c(=O)c(-c3nnc(Cc4ccc(F)cc4)s3)cn21` [Example 397], 19 nM. With `CCN1C[C@](C)(C(=O)N2CC(OC)C2)n2cc(-c3ncc(Cc4ccc(F)cc4)s3)c(=O)c(O)c2C1=O` [Example 263] the figure was 9 nM; with `COC[C@@H]1Cn2cc(-c3nnc(Cc4ccc(F)cc4)s3)c(=O)c(O)c2C(=O)N1C1CCC1` [Example 195], 5.9 nM; with `CCC(C)N1C(=O)c2c(O)c(=O)c(-c3nnc(Cc4ccc(F)cc4F)s3)cn2C[C@H]1COC` (some centres unmarked) [Example 146], 5.9 nM.

On to `CCNC(=O)C1(C)CN(C)C(=O)c2c(O)c(=O)c(-c3ncc(Cc4ccc(F)cc4F)s3)cn21` (centres unmarked) [Example 153], for which the IC50 was 5.8 nM. In the case of `CCN1C(=O)c2c(O)c(=O)c(-c3ncc(Cc4ccc(F)cc4)s3)cn2C[C@]1(C)C(=O)NC` [Example 292], the IC50 was 7.3 nM. Take `COC[C@@H]1Cn2cc(-c3nnc(Cc4ccc(F)cc4F)s3)c(=O)c(O)c2C(=O)N1C1CCC1` [Example 93]: the IC50 was 7.8 nM. For the compound `CCN1C(=O)c2c(O)c(=O)c(-c3nnc(Cc4ccc(F)cc4)s3)cn2C[C@]1(C)COC` [Example 318], the IC50 is 6.5 nM. With `COC[C@@H]1Cn2cc(-c3nnc(CCc4ccc(F)cc4F)s3)c(=O)c(O)c2C(=O)N1C(C)C` [Example 317] the figure was 9.8 nM. `CNC(=O)[C@]1(C)CN(C(C)C)C(=O)c2c(O)c(=O)c(-c3nnc(Cc4ccc(F)cc4F)s3)cn21` [Example 190]: the half-inhibitory concentration (IC50) was 11 nM. In the case of `CCNC(=O)[C@]1(C)CN(C(C)C)C(=O)c2c(O)c(=O)c(-c3ncc(Cc4ccc(F)cc4)s3)cn21` [Example 226] it was 13 nM. With `COCCOC[C@@H]1CN(C(C)C)C(=O)c2c(O)c(=O)c(-c3nnc(Cc4ccc(F)cc4F)s3)cn21` [Example 46], the half-maximal inhibitory concentration (IC50) is 11 nM.

For the compound `CC(C)N1C(=O)c2c(O)c(=O)c(-c3nnc(Cc4ccc(F)cc4)s3)cn2C[C@@]1(C)C(=O)NC(C)(C)C` [Example 309], the IC50 is 8.8 nM. For `COC[C@@H]1Cn2cc(-c3nnc(Cc4ccc(F)cc4F)s3)c(=O)c(O)c2C(=O)N1C(C)C` [Example 99], the half-inhibitory concentration (IC50) is 6.1 nM. In the case of `COCCOC[C@H]1CN(C(C)C)C(=O)c2c(O)c(=O)c(-c3ncc(Cc4ccc(F)cc4F)s3)cn21` [Example 56] it was 10 nM. For the compound `COCCN(C)C(=O)[C@]1(C)CN(C(C)C)C(=O)c2c(O)c(=O)c(-c3ncc(Cc4ccc(F)cc4)s3)cn21` [Example 235], the IC50 was 16 nM. In the case of `CC(C)N1CC(CS(C)(=O)=O)n2cc(-c3ncc(Cc4ccc(F)cc4F)s3)c(=O)c(O)c2C1=O` (centres unmarked) [Example 101] it was 6.4 nM.

In the case of `CC[C@]1(C(=O)N2CCC2)CN(C(C)C)C(=O)c2c(O)c(=O)c(-c3nnc(Cc4ccc(F)cc4)s3)cn21` [Example 392], the IC50 is 11 nM. With `CNC(=O)C1CN(C(C)C)C(=O)c2c(O)c(=O)c(-c3ncc(Cc4ccc(F)cc4F)s3)cn21` (centres unmarked) [Example 22], the concentration for half-maximal inhibition (IC50) is 7 nM.

`CC(C)N1CC(CC(N)=O)n2cc(-c3ncc(Cc4ccc(F)cc4F)s3)c(=O)c(O)c2C1=O` (centres unmarked) [Example 35]: the IC50 is 6.7 nM. With `CCNC(=O)C1(C)CN(CC)C(=O)c2c(O)c(=O)c(-c3ncc(Cc4ccc(F)cc4F)s3)cn21` (centres unmarked) [Example 162] the figure was 7.1 nM; with `COCCOC[C@H]1Cn2cc(-c3ncc(Cc4ccc(F)cc4F)s3)c(=O)c(O)c2C(=O)N1CC(C)C` [Example 58], 17 nM; with `CC(C)N1CC2(CC2)n2cc(-c3nnc(Cc4ccc(F)cc4)s3)c(=O)c(O)c2C1=O` [Example 175], 9.5 nM. With `CN(C)C(=O)CC1CN(C2CC2)C(=O)c2c(O)c(=O)c(-c3ncc(Cc4ccc(F)cc4F)s3)cn21` (centres unmarked) [Example 164] the figure was 6.5 nM.
